Data reported in ChEMBL document CHEMBL1921670, “Discovery and optimization of indole and 7-azaindoles as Rho kinase (ROCK) inhibitors (part-II)” (Bioorg Med Chem Lett, 2011).
≈ marks a conversion by molar mass, not a printed value. Calls of active or inactive are those of the source. The rule behind the calls is not given here.

Key:
[1] = molecular target: Rho-associated protein kinase 1 (Homo sapiens, UniProt Q13464); test: Inhibition of ROCK1
[2] = molecular target: CYP3A4 (Homo sapiens, UniProt P08684); test: Inhibition of CYP3A4 at 10 uM; type: ADME
Sequence of CYP3A4 (P08684 whole entry): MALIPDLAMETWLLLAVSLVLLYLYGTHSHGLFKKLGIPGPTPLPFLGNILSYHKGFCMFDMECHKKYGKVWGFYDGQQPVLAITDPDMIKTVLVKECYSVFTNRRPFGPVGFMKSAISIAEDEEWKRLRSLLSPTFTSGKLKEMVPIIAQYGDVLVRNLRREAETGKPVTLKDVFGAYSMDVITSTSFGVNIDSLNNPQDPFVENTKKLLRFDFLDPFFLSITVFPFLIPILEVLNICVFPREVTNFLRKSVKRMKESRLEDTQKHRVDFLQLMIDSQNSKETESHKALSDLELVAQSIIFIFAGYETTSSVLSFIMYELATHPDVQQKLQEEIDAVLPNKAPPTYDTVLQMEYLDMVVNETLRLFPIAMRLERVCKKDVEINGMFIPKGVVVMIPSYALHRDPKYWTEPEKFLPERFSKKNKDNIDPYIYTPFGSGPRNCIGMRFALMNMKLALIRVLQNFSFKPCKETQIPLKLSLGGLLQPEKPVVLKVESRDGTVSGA

[3] = molecular target: Serine/threonine-protein kinase MRCK alpha (Homo sapiens) (UniProt Q5VT25); test: Inhibition of MRCKalpha at 5 uM
[4] = molecular target: CYP2C9 (Homo sapiens, UniProt P11712); test: Inhibition of CYP2C9 at 10 uM; type: ADME
Sequence of CYP2C9 (P11712 whole entry): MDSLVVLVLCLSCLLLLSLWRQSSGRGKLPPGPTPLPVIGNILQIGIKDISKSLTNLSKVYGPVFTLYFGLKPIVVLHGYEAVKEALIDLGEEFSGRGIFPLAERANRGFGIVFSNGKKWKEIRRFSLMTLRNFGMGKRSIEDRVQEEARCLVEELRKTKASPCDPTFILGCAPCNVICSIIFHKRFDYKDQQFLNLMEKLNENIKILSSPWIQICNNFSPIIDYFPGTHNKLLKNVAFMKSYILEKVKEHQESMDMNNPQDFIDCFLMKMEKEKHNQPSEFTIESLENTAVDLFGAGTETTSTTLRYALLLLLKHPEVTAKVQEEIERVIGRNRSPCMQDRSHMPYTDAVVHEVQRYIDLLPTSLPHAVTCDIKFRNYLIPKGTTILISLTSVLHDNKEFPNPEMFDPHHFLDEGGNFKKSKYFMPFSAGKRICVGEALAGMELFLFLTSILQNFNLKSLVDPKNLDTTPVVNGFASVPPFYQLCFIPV

[5] = Half life in human liver microsomes; type: ADME, Microsome
[6] = molecular target: Rho-associated protein kinase 2 (Homo sapiens, UniProt O75116); test: Inhibition of ROCK2
Sequence of Rho-associated protein kinase 2 (O75116 whole entry): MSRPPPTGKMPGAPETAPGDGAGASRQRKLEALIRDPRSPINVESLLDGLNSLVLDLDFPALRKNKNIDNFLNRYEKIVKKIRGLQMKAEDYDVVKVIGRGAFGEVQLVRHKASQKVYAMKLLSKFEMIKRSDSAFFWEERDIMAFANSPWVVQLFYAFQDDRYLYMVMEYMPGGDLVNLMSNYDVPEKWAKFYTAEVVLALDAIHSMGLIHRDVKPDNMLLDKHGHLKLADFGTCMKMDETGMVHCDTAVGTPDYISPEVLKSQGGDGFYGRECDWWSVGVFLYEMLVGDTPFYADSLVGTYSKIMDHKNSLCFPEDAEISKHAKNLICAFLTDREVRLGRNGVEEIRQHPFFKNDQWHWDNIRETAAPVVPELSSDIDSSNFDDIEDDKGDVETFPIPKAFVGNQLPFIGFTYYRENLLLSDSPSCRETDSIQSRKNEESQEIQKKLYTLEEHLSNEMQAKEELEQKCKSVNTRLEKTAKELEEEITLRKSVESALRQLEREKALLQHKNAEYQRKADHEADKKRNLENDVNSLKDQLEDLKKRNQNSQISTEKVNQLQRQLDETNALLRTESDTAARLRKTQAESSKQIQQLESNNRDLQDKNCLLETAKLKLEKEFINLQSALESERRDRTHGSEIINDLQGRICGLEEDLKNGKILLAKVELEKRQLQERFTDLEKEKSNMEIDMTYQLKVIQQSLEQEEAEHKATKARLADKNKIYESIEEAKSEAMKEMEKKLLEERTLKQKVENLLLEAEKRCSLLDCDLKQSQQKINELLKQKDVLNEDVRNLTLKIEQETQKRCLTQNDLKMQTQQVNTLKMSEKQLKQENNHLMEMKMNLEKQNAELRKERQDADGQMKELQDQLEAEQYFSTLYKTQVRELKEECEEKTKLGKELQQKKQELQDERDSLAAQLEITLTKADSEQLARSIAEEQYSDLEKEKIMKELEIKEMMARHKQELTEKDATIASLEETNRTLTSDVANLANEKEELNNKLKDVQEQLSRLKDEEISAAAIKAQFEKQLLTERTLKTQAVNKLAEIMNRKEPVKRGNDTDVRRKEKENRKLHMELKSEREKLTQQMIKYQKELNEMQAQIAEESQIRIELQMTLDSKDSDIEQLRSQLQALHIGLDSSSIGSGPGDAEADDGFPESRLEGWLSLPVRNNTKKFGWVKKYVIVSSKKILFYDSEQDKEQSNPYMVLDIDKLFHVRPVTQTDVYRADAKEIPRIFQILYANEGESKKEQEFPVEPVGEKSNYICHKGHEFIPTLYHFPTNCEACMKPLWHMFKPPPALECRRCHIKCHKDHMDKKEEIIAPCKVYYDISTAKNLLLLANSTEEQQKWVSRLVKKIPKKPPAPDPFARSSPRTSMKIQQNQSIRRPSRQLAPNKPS

[7] = molecular target: Mitogen-activated protein kinase 10 (Homo sapiens) (UniProt P53779); test: Inhibition of JNK3 at 5 uM
Sequence of Mitogen-activated protein kinase 10 (Homo sapiens) (P53779 whole entry): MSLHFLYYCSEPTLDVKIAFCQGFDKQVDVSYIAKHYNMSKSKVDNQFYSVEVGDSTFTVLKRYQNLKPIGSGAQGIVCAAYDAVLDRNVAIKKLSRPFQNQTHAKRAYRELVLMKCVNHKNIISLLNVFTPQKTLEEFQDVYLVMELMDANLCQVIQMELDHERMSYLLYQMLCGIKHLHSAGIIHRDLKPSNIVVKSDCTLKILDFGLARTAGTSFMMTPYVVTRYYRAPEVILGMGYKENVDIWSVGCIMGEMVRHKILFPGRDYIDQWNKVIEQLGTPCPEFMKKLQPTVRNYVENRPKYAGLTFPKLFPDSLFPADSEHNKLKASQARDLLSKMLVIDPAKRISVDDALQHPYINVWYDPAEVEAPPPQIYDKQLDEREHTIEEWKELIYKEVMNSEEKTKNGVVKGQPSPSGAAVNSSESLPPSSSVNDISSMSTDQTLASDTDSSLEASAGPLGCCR

[8] = Inhibition of PKA
[9] = molecular target: T1, CYP1A2 (Homo sapiens, UniProt P05177); test: Inhibition of CYP1A2 at 10 uM; type: ADME
T1 sequence (P05177 whole entry): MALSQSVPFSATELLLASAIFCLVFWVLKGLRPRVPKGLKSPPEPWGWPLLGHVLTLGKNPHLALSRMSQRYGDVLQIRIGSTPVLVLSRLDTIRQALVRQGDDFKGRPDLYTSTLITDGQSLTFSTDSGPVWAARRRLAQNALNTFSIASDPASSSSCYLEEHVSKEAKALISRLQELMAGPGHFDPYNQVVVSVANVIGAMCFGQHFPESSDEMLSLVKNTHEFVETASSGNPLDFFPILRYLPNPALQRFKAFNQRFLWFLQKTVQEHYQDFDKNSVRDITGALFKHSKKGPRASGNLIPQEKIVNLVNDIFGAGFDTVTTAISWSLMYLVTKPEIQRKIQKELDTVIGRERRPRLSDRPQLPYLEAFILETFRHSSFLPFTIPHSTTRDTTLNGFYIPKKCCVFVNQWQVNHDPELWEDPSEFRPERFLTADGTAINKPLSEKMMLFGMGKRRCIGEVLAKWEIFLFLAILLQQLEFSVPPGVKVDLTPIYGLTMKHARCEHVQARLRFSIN

[10] = Inhibition of p38 at 5 uM
[11] = molecular target: RAC-alpha serine/threonine-protein kinase (Homo sapiens) (UniProt P31749); test: Inhibition of AKT at 5 uM
[12] = molecular target: CYP2D6 (Homo sapiens, UniProt P10635); test: Inhibition of CYP2D6 at 10 uM; type: ADME
Sequence of CYP2D6 (P10635 whole entry): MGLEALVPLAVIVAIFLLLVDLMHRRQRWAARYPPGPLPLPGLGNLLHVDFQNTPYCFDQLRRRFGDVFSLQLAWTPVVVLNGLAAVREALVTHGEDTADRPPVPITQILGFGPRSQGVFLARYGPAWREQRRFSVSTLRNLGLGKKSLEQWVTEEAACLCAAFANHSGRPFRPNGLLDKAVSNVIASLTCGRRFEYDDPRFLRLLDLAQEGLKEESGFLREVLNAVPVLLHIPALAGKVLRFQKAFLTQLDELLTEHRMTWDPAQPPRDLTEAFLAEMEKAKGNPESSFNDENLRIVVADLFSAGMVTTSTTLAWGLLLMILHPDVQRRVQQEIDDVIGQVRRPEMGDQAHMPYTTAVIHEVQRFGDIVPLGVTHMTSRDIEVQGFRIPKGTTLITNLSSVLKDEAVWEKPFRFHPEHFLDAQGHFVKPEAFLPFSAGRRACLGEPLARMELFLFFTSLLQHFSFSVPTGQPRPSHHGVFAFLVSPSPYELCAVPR

[13] = Aqueous solubility of compound at pH 7.4; type: physicochemical; conditions: buffer
[14] = Aqueous solubility of compound at pH 5.5; type: physicochemical; conditions: buffer
[15] = Oral bioavailability in rat at 2 mg/kg; type: ADME, organism-based; conditions: in vivo
[16] = AUC in rat at 2 mg/kg, po; type: ADME, organism-based; set-up: dose 2 mg/kg, route oral; conditions: plasma
[17] = Volume of distribution at steady state in rat at 1 mg/kg, iv or 2 mg/kg, po; type: ADME, organism-based; conditions: in vivo, read-out: Vdss
[18] = Inhibition of myosin light chain bisphosphorylation by cell-based assay
[19] = Half life in rat at 1 mg/kg, iv or 2 mg/kg, po; type: ADME, organism-based; conditions: in vivo
[20] = AUC in rat at 1 mg/kg, iv; type: ADME, organism-based; set-up: dose 1 mg/kg, route intravenous; conditions: plasma
[21] = Clearance in rat at 1 mg/kg, iv or 2 mg/kg, po; type: ADME, organism-based; conditions: in vivo
[22] = Cmax in rat at 2 mg/kg, po; type: ADME, organism-based; set-up: dose 2 mg/kg, route oral; conditions: in vivo

Sequence of Rho-associated protein kinase 1 (Q13464 whole entry): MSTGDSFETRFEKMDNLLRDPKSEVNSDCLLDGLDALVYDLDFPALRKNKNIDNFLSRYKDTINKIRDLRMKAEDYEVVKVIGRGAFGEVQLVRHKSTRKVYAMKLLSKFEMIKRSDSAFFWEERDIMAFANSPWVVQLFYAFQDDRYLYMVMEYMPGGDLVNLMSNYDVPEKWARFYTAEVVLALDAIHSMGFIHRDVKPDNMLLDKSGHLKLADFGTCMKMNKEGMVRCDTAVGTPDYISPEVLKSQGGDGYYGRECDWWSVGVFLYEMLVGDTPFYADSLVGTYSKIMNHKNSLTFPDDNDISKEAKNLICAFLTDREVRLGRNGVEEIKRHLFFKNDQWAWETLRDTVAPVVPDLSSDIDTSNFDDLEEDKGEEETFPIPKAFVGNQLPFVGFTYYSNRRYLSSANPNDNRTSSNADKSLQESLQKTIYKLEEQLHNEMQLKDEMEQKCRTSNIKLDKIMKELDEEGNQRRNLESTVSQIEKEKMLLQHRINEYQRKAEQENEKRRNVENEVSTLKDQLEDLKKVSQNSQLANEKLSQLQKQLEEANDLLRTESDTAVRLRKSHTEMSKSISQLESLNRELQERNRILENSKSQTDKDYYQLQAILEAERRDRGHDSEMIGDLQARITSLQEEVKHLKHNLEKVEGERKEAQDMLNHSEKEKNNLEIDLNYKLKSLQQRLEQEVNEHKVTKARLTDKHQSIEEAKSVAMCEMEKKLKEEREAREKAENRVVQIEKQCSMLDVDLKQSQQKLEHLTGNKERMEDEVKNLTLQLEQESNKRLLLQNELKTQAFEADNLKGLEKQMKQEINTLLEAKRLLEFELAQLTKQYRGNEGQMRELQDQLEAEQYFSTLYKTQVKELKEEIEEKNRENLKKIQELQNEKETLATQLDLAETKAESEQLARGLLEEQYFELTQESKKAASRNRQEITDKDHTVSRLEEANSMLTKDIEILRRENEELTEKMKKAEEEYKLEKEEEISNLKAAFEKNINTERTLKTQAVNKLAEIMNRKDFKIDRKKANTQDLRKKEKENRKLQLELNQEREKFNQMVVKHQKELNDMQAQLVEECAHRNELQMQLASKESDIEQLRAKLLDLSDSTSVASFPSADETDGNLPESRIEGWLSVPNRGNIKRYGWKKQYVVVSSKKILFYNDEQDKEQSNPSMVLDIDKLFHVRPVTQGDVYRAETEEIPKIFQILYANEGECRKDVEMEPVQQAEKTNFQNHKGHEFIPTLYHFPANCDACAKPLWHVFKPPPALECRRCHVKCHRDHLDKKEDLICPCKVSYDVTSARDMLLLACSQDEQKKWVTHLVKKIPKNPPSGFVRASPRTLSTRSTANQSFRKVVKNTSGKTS

IC50 [1] | inhibition at 10 µM [2] | inhibition at 10 µM [4] | half-life [5] | IC50 [6] | IC50 [8] | inhibition at 10 µM [9] | inhibition at 10 µM [12] | solubility [13] | solubility [14] | bioavailability [15] | AUC [16] | Vd [17] | half-life [19] | AUC [20] | clearance [21] | Structure (SMILES) | also measured
243 nM | 65% | 46% | 17 min | 43 nM | 3670 nM | 26% | 55% | – | – | – | – | – | – | – | – | COc1cccc(CNC(=O)c2cc3ccc(-c4cn[nH]c4)nc3n2CCN(C)C)c1 | inhibition [3]: inactive; inhibition [7]: inactive; inhibition [10]: inactive; inhibition [11]: inactive
88 nM | – | – | – | 24 nM | 5800 nM | – | – | – | – | – | – | – | – | – | – | COc1cccc(CNC(=O)c2cc3ccc(-c4cn[nH]c4)nc3n2CCCO)c1 | inhibition [3]: inactive; inhibition [7]: inactive; inhibition [10]: inactive; inhibition [11]: inactive
– | – | – | – | – | 510 nM | – | – | ≤ 0.01 µM | ≤ 0.01 µM | – | – | – | – | – | – | COc1cccc(CNC(=O)c2c[nH]c3cc(-c4cn[nH]c4)ccc23)c1 | –
5 nM | 70% | 91% | 20 min | < 1 nM | 7000 nM | -6% | 53% | 77 µM (≈ 32100 ng/mL) | ≥ 100 µM | 1% | 0.02 µM·h | 3.2 L/kg | 72 min | 1 µM·h | 42 mL/min/kg | COc1cccc(CNC(=O)c2cn(CCN(C)C)c3cc(-c4cn[nH]c4)ccc23)c1 | IC50 [18]: 23 nM
2 nM | 40% | 76% | 68 min | < 1 nM | 150 nM | 1% | 48% | – | – | 35% | 7.9 µM·h | 0.5 L/kg | 108 min | 11.5 µM·h | 4 mL/min/kg | COc1cccc(CNC(=O)c2cc3ccc(-c4cn[nH]c4)nc3n2C)c1 | IC50 [18]: 25 nM; Cmax [22]: 1190 nM
– | – | – | – | – | 6700 nM | – | – | ≤ 0.01 µM | ≤ 0.01 µM | – | – | – | – | – | – | COc1cccc(CNC(=O)c2cc3ccc(-c4cn[nH]c4)cc3[nH]2)c1 | –
33 nM | 40% | 52% | 27 min | 8 nM | 1700 nM | 16% | 30% | – | – | 22% | 1 µM·h | 1.2 L/kg | 54 min | 2.2 µM·h | 21 mL/min/kg | COc1cccc(CN(C(=O)c2cc3ccc(-c4cn[nH]c4)nc3[nH]2)C2CC2)c1 | Cmax [22]: 255 nM
